Measured values from ChEMBL document CHEMBL5257034, “Hybrid molecules: The privileged scaffolds for various pharmaceuticals” (Eur J Med Chem, 2016).
Values after ≈ are worked out from the molar mass of the structure shown.

What was measured:
Candida albicans [1] = assay: Antifungal activity against Candida albicans; format: functional, organism-based
Plasmodium falciparum [2] = assay: Antiplasmodial activity against Plasmodium falciparum W2 infected in red blood cells (unknown origin) incubated for 72 hrs by LDH assay; format: functional, organism-based, Red blood cell; details: W2, Erythrocyte
MCF7 = assay: Cytotoxicity against human MCF7 cells measured 24 hrs by MTT assay; format: functional, cell-based; details: MCF7, 24 h
Candida albicans [3] = assay: Antifungal activity against Candida albicans ATCC 2091; format: functional
Aspergillus niger [4] = assay: Antifungal activity against Aspergillus niger ATCC 9029; format: functional
Pichia kudriavzevii = assay: Antifungal activity against Candida krusei ATCC 6258; format: functional
Aspergillus niger [5] = assay: Antifungal activity against Aspergillus niger assessed as zone of inhibition; format: functional
Candida albicans [6] = assay: Antifungal activity against Candida albicans assessed as zone of inhibition; format: functional
Mus musculus = assay: Antiinflammatory activity against ear oedema mouse model assessed as inhibition of xylene induced edema; format: functional
[7] = tested on: Meyerozyma guilliermondii; assay: Antifungal activity against Meyerozyma guilliermondii assessed as zone of inhibition; format: functional
Candida albicans [8] = assay: Antifungal activity against Candida albicans ATCC 76615 incubated for 24 hrs by microbroth dilution method; format: functional
Pichia norvegensis = assay: Antifungal activity against Candida mycoderma incubated for 24 hrs; format: functional
[9] = tested on: Mycobacterium tuberculosis; assay: Antibacterial activity against Mycobacterium tuberculosis H37Rv; format: functional
[10] = tested on: Mycobacterium tuberculosis; assay: Antibacterial activity against Mycobacterium tuberculosis H37Rv (ATTCC 27294) by alamar blue based broth dilution assay; format: functional
Plasmodium falciparum [11] = assay: Antimalarial activity against chloroquine-sensitive Plasmodium falciparum 3D7; format: functional
[12] = tested on: Mycobacterium tuberculosis; assay: Antibacterial activity against Mycobacterium tuberculosis H37Rv assessed as reduction in relative light unit at 2 microg/ml incubated for 72 hrs by luciferase reporter phage assay relative to control; format: functional; parameters: scale not given: the % may be the effect or the level left; details: dose 2 µg/ml
[13] = Selectivity index, ratio of IC50 for inhibition of COX2 in rat macrophages to IC50 for inhibition of COX1 in calf endotheliocyte
[14] = molecular target: T1, Prostaglandin G/H synthase 2 (Rattus norvegicus, UniProt P35355); assay: Inhibition of COX2 in rat macrophages using arachidonic acid as substrate preincubated with compound for 30 mins followed by substrate addition and measured after 20 mins by EIA; format: cell-based, Macrophage
T1 sequence (P35355 whole entry): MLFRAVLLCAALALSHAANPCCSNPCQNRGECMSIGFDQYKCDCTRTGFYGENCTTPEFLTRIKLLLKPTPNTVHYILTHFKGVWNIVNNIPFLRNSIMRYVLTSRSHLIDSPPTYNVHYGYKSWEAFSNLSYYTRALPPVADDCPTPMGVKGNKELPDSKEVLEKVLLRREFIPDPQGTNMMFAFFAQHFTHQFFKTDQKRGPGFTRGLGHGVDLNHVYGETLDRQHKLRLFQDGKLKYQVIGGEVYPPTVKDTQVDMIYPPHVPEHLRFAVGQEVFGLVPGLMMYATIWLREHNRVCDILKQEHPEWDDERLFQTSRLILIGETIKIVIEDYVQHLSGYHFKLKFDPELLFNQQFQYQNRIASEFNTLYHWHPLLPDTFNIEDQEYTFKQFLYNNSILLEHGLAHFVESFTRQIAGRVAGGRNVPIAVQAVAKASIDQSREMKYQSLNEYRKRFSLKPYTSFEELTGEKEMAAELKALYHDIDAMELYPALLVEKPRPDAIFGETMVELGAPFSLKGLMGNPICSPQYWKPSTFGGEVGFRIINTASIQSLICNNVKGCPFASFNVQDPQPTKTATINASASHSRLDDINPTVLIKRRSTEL

[15] = molecular target: T2, Polyunsaturated fatty acid 5-lipoxygenase (Rattus norvegicus, UniProt P12527); assay: Inhibition of 5-LOX in Sprague-Dawley rat leukocytes preincubated for 30 mins followed by calcium ionophore A23187 addition and measured after 20 mins by EIA; format: cell-based, Leucocyte
T2 sequence (P12527 whole entry): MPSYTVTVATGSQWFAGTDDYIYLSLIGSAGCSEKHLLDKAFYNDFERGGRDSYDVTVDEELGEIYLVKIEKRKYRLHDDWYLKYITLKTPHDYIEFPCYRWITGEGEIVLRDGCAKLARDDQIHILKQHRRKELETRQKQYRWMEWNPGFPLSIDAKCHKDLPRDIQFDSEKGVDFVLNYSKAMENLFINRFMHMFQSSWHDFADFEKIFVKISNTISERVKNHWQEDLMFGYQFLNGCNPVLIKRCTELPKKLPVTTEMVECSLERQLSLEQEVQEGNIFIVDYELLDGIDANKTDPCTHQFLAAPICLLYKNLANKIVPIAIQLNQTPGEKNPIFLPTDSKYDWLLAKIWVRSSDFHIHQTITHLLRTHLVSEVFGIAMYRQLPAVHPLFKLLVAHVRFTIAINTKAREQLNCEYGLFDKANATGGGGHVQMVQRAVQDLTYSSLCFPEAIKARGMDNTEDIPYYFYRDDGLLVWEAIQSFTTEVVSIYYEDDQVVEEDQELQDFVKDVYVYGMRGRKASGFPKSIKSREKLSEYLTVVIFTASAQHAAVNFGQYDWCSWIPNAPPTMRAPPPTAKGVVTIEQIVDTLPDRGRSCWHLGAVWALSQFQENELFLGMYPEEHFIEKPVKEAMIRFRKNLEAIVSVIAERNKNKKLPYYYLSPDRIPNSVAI

[16] = tested on: Mycobacterium tuberculosis; assay: Antibacterial activity against Mycobacterium tuberculosis H37Rv by alamar blue method; format: functional

**Q.** For `CCCCCCCCCCC(=O)N[C@H](C(=O)O)[C@H]1O[C@@H](n2ccc(=O)[nH]c2=O)[C@H](O)[C@@H]1O`, which MIC (Candida albicans [1]) is on record?
**A.** 40 µg/mL (≈ 87.8 µM)

**Q.** With `COc1cc(Nc2nc(OCc3cn(CCCNc4cccc5cc(Cl)ccc45)nn3)nc(N3CCOCC3)n2)cc(OC)c1` as the compound, how does the IC50 (Plasmodium falciparum [2]) read?
**A.** 1.73 µM

**Q.** Which IC50 (MCF7) does the source give for `COc1cc(/C=C/c2ccc(O)c(/C=N/NC(N)=S)c2)cc(OC)c1` here?
**A.** 25 µM

**Q.** For `COc1cc(Nc2nc(OCc3cn(CCCNc4cccc5cc(Cl)ccc45)nn3)nc(N(C)C)n2)cc(OC)c1`, which IC50 (Plasmodium falciparum [2]) is on record?
**A.** 1.2 µM

**Q.** With `CCn1cc(C(=O)NN2C(=O)CSC2c2ccccc2OC)c(=O)c2cc(F)c(N3CCNCC3)cc21` (centres undefined) as the compound, how does the MIC (Candida albicans [3]) read?
**A.** 3.12 µg/mL (≈ 5.95 µM)

**Q.** And the MIC (Aspergillus niger [4])?
**A.** 12.5 µg/mL (≈ 23.8 µM)

**Q.** What about the MIC (Pichia kudriavzevii) of the same compound?
**A.** 1.59 µg/mL (≈ 3.03 µM)

**Q.** Which “inhibition zone (IZ)” value (Aspergillus niger [5]) does the source give for `COc1ccc(-c2nc(-c3ccccc3)c(-c3ccccc3)n2C(NN(c2ccccc2)c2ccccc2)c2ccccc2)c(OC)c1OC` (centres undefined) here?
**A.** 27 mm

**Q.** And the “inhibition zone (IZ)” value (Candida albicans [6])?
**A.** 28 mm

**Q.** Which MIC50 (Candida albicans [1]) does the source give for `O=C(/C=C/c1ccc(Cl)cc1Cl)c1ccc(OCC(O)(Cn2cncn2)c2ccc(F)cc2F)cc1` (centres undefined) here?
**A.** 0.12 µg/mL (≈ 0.226 µM)

**Q.** For `CS(=O)(=O)c1ccc(-c2nc(S(C)(=O)=O)nn2-c2ccc(Br)cc2)cc1`, which “inhibition (INH)” value (Mus musculus) is on record?
**A.** 70.8%

**Q.** Which results are given for `OC(Cn1cncn1)(Cn1cncn1)c1ccc(F)cc1F` [FLUCONAZOLE]?
**A.** MIC (Candida albicans [3]): 6.25 µg/mL (≈ 20.4 µM); MIC (Aspergillus niger [4]): 12.5 µg/mL (≈ 40.8 µM); MIC (Pichia kudriavzevii): 3.12 µg/mL (≈ 10.2 µM); inhibition zone (IZ) [7]: 21 mm; MIC (Candida albicans [8]): 52.2 µg/mL (≈ 171 µM); MIC (Pichia norvegensis): 4 µg/mL (≈ 13.1 µM)

**Q.** Which MIC [9] does the source give for `O=C1Nc2cc3c(-c4ccccc4)c(-c4ccccc4)oc(=O)c3cc2C(c2ccc([N+](=O)[O-])cc2)N1` (centres undefined) here?
**A.** 40 µg/mL (≈ 81.7 µM)

**Q.** For `CS(=O)(=O)c1ccc(-c2nc(S(C)(=O)=O)nn2-c2ccc(Cl)cc2)cc1`, which “inhibition (INH)” value (Mus musculus) is on record?
**A.** 77.2%

**Q.** With `Cn1ccnc1-c1nn2cc(-c3ccc(-c4ccc([N+](=O)[O-])cc4)cc3)nc2s1` as the compound, how does the MIC [10] read?
**A.** 3.14 µg/mL (≈ 7.8 µM)

**Q.** Which results are given for `COc1ccc(-c2nc(-c3ccccc3)c(-c3ccccc3)n2C(NN2CCCCC2)c2ccccc2)c(OC)c1OC` (centres undefined)?
**A.** inhibition zone (IZ) (Aspergillus niger [5]): 26 mm; inhibition zone (IZ) (Candida albicans [6]): 29 mm

**Q.** Which MIC [9] does the source give for `O=C1Oc2cc(OCCN(N3CCOCC3)N3CCOCC3)ccc2C2c3ccccc3OC12` (centres undefined) here?
**A.** 3.12 µg/mL (≈ 6.67 µM)

**Q.** With `Cc1cccc(C)c1Nc1nc(OCc2cn(CCNc3cccc4cc(Cl)ccc34)nn2)nc(N(C)C)n1` as the compound, how does the IC50 (Plasmodium falciparum [2]) read?
**A.** 1.69 µM

**Q.** For `CCN(CC)CCCC(C)Nc1ccnc2cc(Cl)ccc12` (centres undefined) [CHLOROQUINE], which MIC (Plasmodium falciparum [11]) is on record?
**A.** 0.125 µg/mL (≈ 0.391 µM)

**Q.** For `Cc1cccc(C)c1Nc1nc(OCc2cn(CCCNc3cccc4cc(Cl)ccc34)nn2)nc(N(C)C)n1`, which IC50 (Plasmodium falciparum [2]) is on record?
**A.** 0.73 µM

**Q.** With `CC1(C)CC[C@]2(C(=O)O)CC[C@]3(C)C(=CC[C@@H]4[C@@]5(C)CC[C@H](OC(=O)/C=C/c6ccccc6)C(C)(C)[C@@H]5CC[C@]43C)[C@@H]2C1` as the compound, how does the “inhibition zone (IZ)” value [7] read?
**A.** 31 mm

**Q.** With `CO[C@H]1/C=C/O[C@@]2(C)Oc3c(C)c(O)c4c(O)c(c(/C=N/N5CCN(C)CC5)c(O)c4c3C2=O)NC(=O)/C(C)=C\C=C\[C@H](C)[C@H](O)[C@@H](C)[C@@H](O)[C@@H](C)[C@H](OC(C)=O)[C@@H]1C` [RIFAMPIN] as the compound, how does the Activity [12] read?
**A.** 87%

**Q.** For `CS(=O)(=O)c1ccc(-c2nc(SCCN(O)C(N)=O)nn2-c2ccc(Br)cc2)cc1`, which Ratio IC50 [13] is on record?
**A.** 0.015

**Q.** What about the IC50 [14] of the same compound?
**A.** 0.15 µM

**Q.** And the IC50 [15]?
**A.** 0.85 µM

**Q.** For `O=C(O)c1cn(C2CC2)c2cc(N3CCNCC3)c(F)cc2c1=O` [CIPROFLOXACIN], which MIC [16] is on record?
**A.** 4.7 µg/mL (≈ 14.2 µM)

**Q.** For `Cc1ccc(-c2cc(C(F)(F)F)nn2-c2ccc(S(N)(=O)=O)cc2)cc1` [CELECOXIB], which “inhibition (INH)” value (Mus musculus) is on record?
**A.** 64.9%

**Q.** Which MIC (Candida albicans [8]) does the source give for `Clc1ccc(Cn2c[n+](CCCCCC[n+]3cnn(Cc4ccc(Cl)cc4Cl)c3)cn2)c(Cl)c1.[Br-].[Br-]` here?
**A.** 22.9 µg/mL
